Results on 28 compounds are retold here after patent US11312712B2, “Azabenzimidazoles and their use as AMPA receptor modulators” (Janssen Pharmaceutica NV, priority 2015, dated 2022).

As a reminder, the IC50 is the concentration that gives 50% inhibition.

Chain of GluA1o-γ8 (GRIA1o-CACNG8 fusion construct) (P42261 other isoform, or with tags, fused parts or gaps): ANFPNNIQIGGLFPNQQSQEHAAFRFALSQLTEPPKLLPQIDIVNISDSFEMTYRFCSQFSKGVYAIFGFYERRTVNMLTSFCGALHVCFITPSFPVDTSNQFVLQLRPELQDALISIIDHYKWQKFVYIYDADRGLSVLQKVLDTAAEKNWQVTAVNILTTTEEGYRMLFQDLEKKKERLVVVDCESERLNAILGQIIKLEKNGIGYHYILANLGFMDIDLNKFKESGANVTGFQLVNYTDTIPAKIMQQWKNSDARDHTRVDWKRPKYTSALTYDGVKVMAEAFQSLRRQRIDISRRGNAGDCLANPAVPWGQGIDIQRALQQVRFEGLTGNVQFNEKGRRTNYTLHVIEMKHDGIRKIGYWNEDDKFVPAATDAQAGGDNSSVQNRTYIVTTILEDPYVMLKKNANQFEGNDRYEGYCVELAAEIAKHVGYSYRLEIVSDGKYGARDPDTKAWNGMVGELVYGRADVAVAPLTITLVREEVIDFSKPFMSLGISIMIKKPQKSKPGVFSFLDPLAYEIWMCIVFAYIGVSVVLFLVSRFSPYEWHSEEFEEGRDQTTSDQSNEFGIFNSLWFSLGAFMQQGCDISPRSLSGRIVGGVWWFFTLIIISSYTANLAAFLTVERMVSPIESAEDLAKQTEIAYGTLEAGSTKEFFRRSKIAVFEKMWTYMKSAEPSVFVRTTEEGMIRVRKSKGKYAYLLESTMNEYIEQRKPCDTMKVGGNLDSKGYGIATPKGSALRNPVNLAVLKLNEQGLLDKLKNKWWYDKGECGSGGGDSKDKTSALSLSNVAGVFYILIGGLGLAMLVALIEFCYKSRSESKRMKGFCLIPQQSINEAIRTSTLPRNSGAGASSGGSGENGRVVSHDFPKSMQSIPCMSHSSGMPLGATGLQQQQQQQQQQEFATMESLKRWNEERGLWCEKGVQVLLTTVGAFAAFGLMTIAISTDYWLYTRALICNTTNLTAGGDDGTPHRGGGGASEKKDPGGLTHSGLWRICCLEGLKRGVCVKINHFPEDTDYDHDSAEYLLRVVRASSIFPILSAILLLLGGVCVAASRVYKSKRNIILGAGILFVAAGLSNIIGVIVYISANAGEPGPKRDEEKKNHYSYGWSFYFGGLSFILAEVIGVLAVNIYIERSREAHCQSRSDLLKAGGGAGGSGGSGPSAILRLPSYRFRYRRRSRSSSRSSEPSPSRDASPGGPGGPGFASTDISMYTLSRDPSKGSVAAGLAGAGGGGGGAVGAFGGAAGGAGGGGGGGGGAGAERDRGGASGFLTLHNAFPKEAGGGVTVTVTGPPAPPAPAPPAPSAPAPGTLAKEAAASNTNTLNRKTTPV

For the test, the target named is GluA1o-γ8 (GRIA1o-CACNG8 fusion construct) (Homo sapiens (Human), UniProt P42261+Q8WXS5). In words: Calcium flux assay (FLIPR), inhibition of TARP γ8 dependent AMPA receptor activity. In kind it is cell-based. As to conditions: GluA1o-γ8 (GRIA1o-CACNG8 fusion) in HEK293 cells, calcium flux after 15 μM glutamate. In short, it runs like this:
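HEK293 cells stably expressing a 1:1 GRIA1o–CACNG8 fusion were loaded with Calcium-5/6 dye plus compound in pH 7.4 HEPES-buffered saline. FLIPR calcium flux after 15 μM glutamate was normalized to untreated and 10 μM CP465022 controls, and a four-parameter logistic fit gave pIC50.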
Turning to `Cc1cc(-n2c(CCC(F)(F)F)nc3ccc(C(F)(F)F)nc32)cc2cn[nH]c12` [Example 418, 3-(7-Methyl-1H-indazol-5-yl)-5-(trifluoromethyl)-2-(3,3,3-trifluoropropyl)-3H-imidazo[4,5-b]pyridine], the 50% inhibitory concentration (IC50) was 3.98 nM.

In the case of `O=c1[nH]c2ccc(-n3c(C4CCOCC4)nc4ccc(C(F)(F)F)nc43)cc2o1` [Example 160, 6-[2-Tetrahydropyran-4-yl-5-(trifluoromethyl)imidazo[4,5-b]pyridin-3-yl]-3H-1,3-benzoxazol-2-one], the IC50 is 1000 nM.

Regarding `O=C1Nc2ccc(-n3c(-c4ccnc(F)c4)nc4ccc(C(F)(F)F)nc43)cc2C1=O` [Example 215, 5-[2-(2-Fluoro-4-pyridyl)-5-(trifluoromethyl)imidazo[4,5-b]pyridin-3-yl]indoline-2,3-dione], the half-maximal inhibitory concentration (IC50) was 1580 nM.

In the case of `CC(C)c1nc2ccc(C(C)(F)F)nc2n1-c1ccc2[nH]ncc2c1` [Example 211, 5-(1,1-Difluoroethyl)-3-(1H-indazol-5-yl)-2-isopropyl-imidazo[4,5-b]pyridine], the concentration for half-maximal inhibition (IC50) is 5.01 nM.

On to `Fc1ccc(-c2cc3cccnc3n2-c2ccc3[nH]ccc3c2)cc1` [Example 345, 2-(4-Fluorophenyl)-1-(1H-indol-5-yl)pyrrolo[2,3-b]pyridine], for which the IC50 is 79.4 nM.

As for `FC(F)(F)c1nc2ccc(Cl)nc2n1-c1ccc2[nH]ncc2c1` [Example 192, 5-Chloro-3-(1H-indazol-5-yl)-2-(trifluoromethyl)imidazo[4,5-b]pyridine], the IC50 was 2.51 nM.

With `Cc1cc(-n2c(C(C)C)nc3ccc(C(F)F)nc32)cc2cn[nH]c12` [Example 273, 5-(Difluoromethyl)-2-isopropyl-3-(7-methyl-1H-indazol-5-yl)imidazo[4,5-b]pyridine], the IC50 is 0.0631 nM.

`Cc1ccc2cc(-c3ccccc3)n(-c3cnc4c(c3)CC(=O)N4)c2n1` [Example 400, 5-(6-Methyl-2-phenyl-pyrrolo[2,3-b]pyridin-1-yl)-1,3-dihydropyrrolo[2,3-b]pyridin-2-one]: the half-inhibitory concentration (IC50) was 0.251 nM.

Turning to `C=Cc1cc(-n2c(C(F)(F)F)nc3ccc(C(F)(F)F)nc32)cc2cn[nH]c12` [Example 189, 2,5-Bis(trifluoromethyl)-3-(7-vinyl-1H-indazol-5-yl)-3H-imidazo[4,5-b]pyridine], the IC50 was 0.0398 nM.

For `FC(F)(F)c1ccc2nc(C(F)(F)F)n(-c3ccc4[nH]ncc4c3)c2n1` [Example 89, 3-(1H-Indazol-5-yl)-2,5-bis(trifluoromethyl)imidazo[4,5-b]pyridine], the IC50 is 1.26 nM.

Regarding `Fc1cc(-c2nc3ccc(C(F)F)nc3n2-c2cc(Cl)c3[nH]ncc3c2)ccn1` [Example 264, 3-(7-Chloro-1H-indazol-5-yl)-5-(difluoromethyl)-2-(2-fluoro-4-pyridyl)imidazo[4,5-b]pyridine], the IC50 is 0.1 nM.

`O=c1[nH]c2ccc(-n3c(C4CCOCC4)nc4ccc(C(F)(F)F)nc43)cc2s1` [Example 42, 6-[2-Tetrahydropyran-4-yl-5-(trifluoromethyl)imidazo[4,5-b]pyridin-3-yl]-3H-1,3-benzothiazol-2-one]: the half-maximal inhibitory concentration (IC50) is 39.8 nM.

Turning to `Cc1cc(N2CCOCC2)c2nc(C3CC3)n(-c3ccc4[nH]c(=O)sc4c3)c2n1` [Example 136, 6-(2-Cyclopropyl-5-methyl-7-morpholino-imidazo[4,5-b]pyridin-3-yl)-3H-1,3-benzothiazol-2-one], the IC50 was 5.01 nM.

On to `Cc1cc2cccnc2n1-c1cc(F)c2c(c1)CC(=O)N2` [Example 363, 7-Fluoro-5-(2-methylpyrrolo[2,3-b]pyridin-1-yl)indolin-2-one], for which the IC50 is 200 nM.

Regarding `Cc1cc2ccc(C(F)(F)F)nc2n1-c1cc(Cl)c2[nH]ncc2c1` [Example 374, 1-(7-Chloro-1H-indazol-5-yl)-2-methyl-6-(trifluoromethyl)pyrrolo[2,3-b]pyridine], the 50% inhibitory concentration (IC50) was 0.0126 nM.

Regarding `Cc1cc(-n2c(C(C)(F)F)nc3ccc(C(F)(F)F)nc32)cc2cn[nH]c12` [Example 252, 2-(1,1-Difluoroethyl)-3-(7-methyl-1H-indazol-5-yl)-5-(trifluoromethyl)imidazo[4,5-b]pyridine], the IC50 was 0.158 nM.

For the compound `O=c1[nH]c2ccc(-n3c(C4CCOC4)nc4ccc(C(F)(F)F)nc43)cc2o1` (racemic) [Example 161, (R/S)-6-[2-Tetrahydrofuran-3-yl-5-(trifluoromethyl)imidazo[4,5-b]pyridin-3-yl]-3H-1,3-benzoxazol-2-one], the IC50 was 316 nM.

Turning to `O=C1Cc2cc(-n3c(CCCO)nc4ccc(C(F)(F)F)nc43)ccc2N1` [Example 73, 5-(2-(3-Hydroxypropyl)-5-(trifluoromethyl)-3H-imidazo[4,5-b]pyridin-3-yl)indolin-2-one], the IC50 is 1260 nM.

In the case of `FC(F)(F)c1nc2ccc(-c3ccccn3)nc2n1-c1ccc2[nH]ncc2c1` [Example 320, 3-(1H-Indazol-5-yl)-5-(2-pyridyl)-2-(trifluoromethyl)imidazo[4,5-b]pyridine], the 50% inhibitory concentration (IC50) was 200 nM.

Consider `Cc1cc(-n2c(C(C)(C)F)nc3ccc(C(F)(F)F)nc32)cc2cn[nH]c12` [Example 253, 2-(1-Fluoro-1-methyl-ethyl)-3-(7-methyl-1H-indazol-5-yl)-5-(trifluoromethyl)imidazo[4,5-b]pyridine], for which the IC50 is 0.2 nM.

In the case of `CCc1ccc2nc(C(F)(F)F)n(-c3ccc4[nH]ncc4c3)c2n1` [Example 193, 5-Ethyl-3-(1H-indazol-5-yl)-2-(trifluoromethyl)imidazo[4,5-b]pyridine], the 50% inhibitory concentration (IC50) was 1.58 nM.

As for `O=c1[nH]c2ccc(-n3c(C(F)F)nc4ccc(C(F)(F)F)nc43)cc2s1` [Example 234, 6-[2-(Difluoromethyl)-5-(trifluoromethyl)imidazo[4,5-b]pyridin-3-yl]-3H-1,3-benzothiazol-2-one], the 50% inhibitory concentration (IC50) was 0.0794 nM.

As for `Cc1cc(-n2c(C)cc3ccc(C(F)(F)F)nc32)cc2c1NC(=O)C2` [Example 331, 7-Methyl-5-(2-methyl-6-(trifluoromethyl)-1H-pyrrolo[2,3-b]pyridin-1-yl)indolin-2-one], the half-maximal inhibitory concentration (IC50) was 0.01 nM.

Consider `O=C1Cc2cc(-n3c(CC4CCCC4)nc4ccc(C(F)(F)F)nc43)ccc2N1` [Example 54, 5-[2-(Cyclopentylmethyl)-5-(trifluoromethyl)imidazo[4,5-b]pyridin-3-yl]indolin-2-one], for which the 50% inhibitory concentration (IC50) was 6.31 nM.

Consider `CCOc1nc2ccc(C(F)(F)F)nc2n1-c1ccc2c(c1)CC(=O)N2` [Example 243, 5-[2-Ethoxy-5-(trifluoromethyl)imidazo[4,5-b]pyridin-3-yl]indolin-2-one], for which the IC50 was 15.8 nM.

As for `Cc1cc(-n2c(C(C)C)cc3cccnc32)cc2c1NC(=O)C2` [Example 358, 5-(2-Isopropylpyrrolo[2,3-b]pyridin-1-yl)-7-methyl-indolin-2-one], the IC50 is 0.2 nM.

Turning to `FC(F)(F)Oc1ccc(-c2nc3cccnc3n2-c2ccc3[nH]ncc3c2)cc1` [Example 177, 3-(1H-Indazol-5-yl)-2-[4-(trifluoromethoxy)phenyl]imidazo[4,5-b]pyridine], the IC50 was 12600 nM.

Take `Fc1ccc(-c2nc3ccc(C(F)(F)F)nc3n2-c2ccc3[nH]ncc3c2)nc1` [Example 169, 2-(5-Fluoro-2-pyridyl)-3-(1H-indazol-5-yl)-5-(trifluoromethyl)imidazo[4,5-b]pyridine]: the 50% inhibitory concentration (IC50) was 3.16 nM.
